Assay [1] relates to ASK1. Nature of the assay: Association of Trx with ASK1 in vivo in BAEC (co-immunoprecipitation). Format: binding, Bovine. The conditions noted are these: endogenous proteins, IP anti-Trx / Western anti-ASK1; Nac pretreatment then TNF. The method, then: Immunoprecipitation and immunoblotting EC after various treatments were washed twice with cold PBS and lysed in 1.5 ml of cold lysis buffer (50 mM Tris-HC, pH 7.6, 150 mM NaCl, 0.1% Triton X-100, 0.75% Brij 96, 10 μg/ml aprotinin, 10 μg/ml leupeptin, 2 mM PMSF, 1 mM EDTA) for 20 min on ice. Protein concentrations were determined with a Bio-Rad kit. For immunoprecipitation to analyze protein interaction in vivo, 400 μg of cell lysate supematant were incubated with 5 μg of the first protein-specific antiserum (e.g. anti-Trx from Medical & Biological Laboratory) for 2 h with 50 μl of GammaBind plus Sepharose. Immune complexes were collected after each immunoprecipitation by centrifugation at 14,000× g for 10 min followed by 4 washes with lysis buffer. The immune complexes were subjected to Western blot with the second protein (e.g., ASK1)-specific antibody (Santa Cruz Biotech, Santa Cruz, Calif.). The chemiluminescence was detected using an ECL kit according to the instructions of the manufacturer (Amersham Life Science, Arlington Heights, Ill.). […]
TNF dissociates wild type Trx but not Trx-C32S or Trx-C35Sfroin ASK1 in vivo. […] TNF-induced ASK1 activation was measured by an in vitro kinase assay using GST-MKK4 (JNKK1) fusion protein as a substrate. […] Association of ASK1 with Trx was easily detected in untreated EC cells (FIG. 5B, Ctrl). […]

Assay [2] has as its system ASK1. In words: TNF-induced ASK1 activation in BAEC, in vitro kinase assay with GST-MKK4. Format: cell-based, Bovine. The conditions noted are these: Nac 1 mM pretreatment, TNF-α 10 ng/ml 15 min; n=3, p<0.01. The method, then:
J Immunol. 159:3508-18 (1997)) using GST-MKK4 and GST-c-Jun (1-80) fusion protein as a substrate, respectively. Briefly, total 400 μg cell lysates were immunoprecipitated with 5 μg of antibody against ASK1 or JNK1 (Santa Cruz). The immunoprecipitates were mixed with 10 μg GST-MKK4 or GST-c-Jun (1-80) suspended in the kinase buffer (20 mM Hepes, pH 7.6, 20 mM MgCl2, 25 mM β-glycerophosphate, 100 μM sodium orthovanadate, 2 mM DTT, 20 μM ATP) containing 1 μl (10 μCi) of [γ-32P] ATP. The kinase assay was performed at 25° C. for 30 min. The reaction was terminated by the addition of Laemmli sample buffer and the phosphorylated GST-MKK4 or GST-c-Jun (1-80) was visualized by autoradiography.
TNF dissociates wild type Trx but not Trx-C32S or Trx-C35Sfroin ASK1 in vivo. Trx-C32S and Trx-C35S were examiner to determine whether they constitutively bind to ASK1 in vivo. Regulation of ASK1 by Trx was first examined to determine if such regulation is ROS-dependent in EC. BAEC were either untreated or treated with N-acetyl-cysteine (Nac, 1 mM) or vehicle for 60 min prior to TNF-α (10 ng/ml) stimulation for 15 min. TNF-induced ASK1 activation was measured by an in vitro kinase assay using GST-MKK4 (JNKK1) fusion protein as a substrate. TNF activated ASK1 in EC (FIG. 5A). […] Association of ASK1 with Trx was easily detected in untreated EC cells (FIG. 5B, Ctrl). […]

Assay [3] concerns neonatal rat cardiomyocytes. The conditions noted are these: 100 μM H2O2, 15 min post-treatment.
Experimental: Primary cultures of neonatal rat cardiac ventricular myocytes were prepared by the method of Simpson and Savion (Simpson P et al. Differentiation of rat myocytes in single cell cultures with and without proliferating nonmyocardial cells. Cross-striations, ultrastructure, and chronotropic response to isoproterenol. Circ Res. 50:101-16 (1982)) with minor modifications. Briefly, the ventricles were excised from 1-2 day old Wistar rats under ethyl ether anesthesia and minced with scissors in Ca^2+ free Krebs-Henseleit buffer (KHB) solution. The cells were dispersed by adding KHB containing 0.05% trypsin and 0.05% collagenase type II. They were stirred with the use of a small magnetic stirrer bar at 37° C. for 10 min, and the supernatants were saved in cold DMEM containing 10% fetal calf serum (complete DMEM), and digestion was repeated four times. The resultant cell suspension was centrifuged, and the pellet was resuspended in the medium. The cells were plated onto culture flasks for 1.5 hours to remove non-cardiac myocytes. The unattached cells were removed and seeded at 4×10^5 per well in 2.2 cm multi-well gelatin-coated culture plates in DMEM containing 10% fetal calf serum, 100 U/ml penicillin and 100 μg/ml streptomycin. […]
Cardiomyocyte contraction was determined by microscopy. […]
Assay [4] relates to adult rat cardiomyocytes. In words: Twitch amplitude of field-stimulated adult rat cardiac myocytes. The conditions noted are these: 100 μM H2O2, field stimulated at 1 Hz, n=15.
Text: Phosphorylation of endogenous cTnT in cardiomyocytes was examined by in vivo labeling with ^32P-orthophosphate and cell lysates were immunoprecipitated with anti-cTnT followed by SDS-PAGE/autoradiography.
The test system of assay [5] is caspase 3. Nature of the assay: ASK1-induced caspase 3 activity assay in BAEC (Ac-DEVD-AMC substrate). It is filed as cell-based, Bovine. The conditions noted are these: 100 μM inhibitor in lysate assay. The procedure:
Caspase 3 activity assay: Caspase 3 activity was measured with a Caspase 3 fluorescence kit (Sigma) according to the Manufacturer's protocol. Briefly, BAEC were harvested in Caspase 3 lysis buffer (25 mM Hepes, pH 7.4, 5 mM CHAPS, 5 mM DTT) and incubated on ice for 15-20 min followed by a centrifugation at 14,000× g for 10-15 min at 4° C. For each reaction, 5 μl (200 μg) of cell lysate was incubated with 200 μl of 16 μM Caspase 3 peptide substrate acetyl-ASP-Glu-Val-Asp-7 amido-4-methylcoumarin (Ac-DEVD-AMC) in the assay buffer (25 mM Hepes, pH 7.4, 5 mM EDTA, 0.1% CHAPS, 5 mM DTT) in the presence or absence of 100 μM Caspase 3 inhibitor (Ac-DEVD-CHO). The reaction was incubated in the dark for 1-1.5 h and fluorescence was measured in a fluorescence plate reader. The measured fluorescence was used as an arbitrary unit.
Then the effects. of Trx on ASK1-induced caspase 3 activation, a hallmark of the execution of apoptotic cell death (Green D R. Apoptotic pathways: paper wraps stone blunts scissors. Cell. 102:1-4 (2000); Hengartner MO. The biochemistry of apoptosis. Nature. 407:770-6 2000)) was examined. Caspase 3 activity was determined by an in vitro assay using peptide substrate acetyl-ASP-Glu-Val-Asp-7 amido-4-methylcounarin (Ac-DEVD-AMC). Overexpression of ASK1 in BAEC increased caspase 3 activity compared to the control cells (FIG. 6B).

For the compound `CC(=O)N[C@@H](CS)C(=O)O` [Nac, N-acetyl-cysteine, reference compound], in assay [1], the “TNF-induced dissociation of ASK1 from Trx” value is listed as “prevented”. Besides, the “inhibition of TNF-stimulated ASK1 activity” value in assay [2] came to 70%.

With `OO` [Trx H2O2, Hydrogen peroxide], in assay [3], the “spontaneous beating of neonatal cardiomyocytes” value is “completely inhibited”. Moreover, the “time to complete inhibition of twitch” value in assay [4] was 2.38 ± 018 min.

Consider Ac-DEVD-CHO [reference compound], for which the “caspase 3 activity in presence of caspase 3 inhibitor” value in assay [5] was “specifically inhibited”.
